In US20260209202A1, “N-METHYL-4-(QUINOLIN-2-YL)PYRIDIN-2-AMINE COMPOUNDS” (Abbvie Inc., priority 2023, published 2026):

What was measured:
[1] = PET imaging in cynomolgus macaques, baseline and homologous self-block; type: in vivo; conditions: for off-target binding in brain: healthy cynomolgus macaques; for blood brain barrier crossing / brain uptake and clearance: intravenous radiotracer
Procedure: PET imaging procedures in cynomolgus macaques were performed under the guidelines of the Institutional Animal Care and Use Committee. Anesthesia was maintained using isoflurane gas maintained at 1.25-3.0% for the duration of the imaging procedures. Prior to PET imaging, a head computed tomography (CT) was acquired using a Neurologica CereTom® CT system (Neurologica, Danvers, MA, USA) which was used for localization of the animal in the PET system, and later for attenuation correction of the PET data.
The radiotracer was administered as a bolus injection (3 mL over 2 minutes), and data collected in dynamic list mode emission acquisition was initiated using a Siemens Concorde microPET® Focus™ 220 (Siemens USA, Washington DC, USA) for 120 minutes. Arterial blood samples were acquired throughout the PET acquisition to measure radioactivity in whole blood and plasma and to assess the % parent and metabolite(s) for generation of an input function for kinetic modeling analysis. The whole blood arterial samples were acquired, initially rapidly (every 30 seconds) and decreased in frequency towards the end of the PET acquisition to every 30 minutes. Arterial whole blood samples were counted in a well counter (PerkinElmer Wizard® 1470; PerkinElmer, Waltham, MA, USA) for radioactivity concentration. Samples were then centrifuged (3000 RCF for 5 minutes) to allow extraction of plasma which was subsequently counted for radioactivity concentration. To determine the proportion of unchanged radiotracer, selected plasma samples (1, 2, 3, 4, 7, 9, 15, 20, 40, 60, 90, and 120 minutes) were extracted with equal volumes of acetonitrile, then injected onto a Dionex/Thermo Ultimate 3000 radio-HPLC system (ThermoFisher, Waltham, MA, USA) consisting of a Phenomenex® Onyx™ C18 10×100 mm column (Torrance, CA, USA), an Eckert and Ziegler coincidence BGO radiodetector (model B-FC-4100, Eckert and Ziegler, Atlanta, GA, USA) and a mobile phase of (A) 10 mM ammonium acetate and (B) acetonitrile. The conditions for [^18F] Compound (I) are: 0-2.5 min, 95% A at 4 mL/min; 2.5-2.6 min, 95% A to 50% A at 4 mL/min to 3 mL/min; 2.6-10 min, 50% A at 3 mL/min; 10-10.1 min, 50% A to 95% A at 3 mL/min to 4 mL/min; 10.1-13 min, 95% A at 4 mL/min. Retention time for [^18F] Compound (I) was 8.4 min. The conditions for [^18F] Compound (II) are: 0-2.5 min, 95% A at 4 mL/min; 2.5-2.6 min, 95% A to 65% A at 4 mL/min to 3 mL/min; 2.6-10 min, 65% A at 3 mL/min; 10-10.1 min, 65% A to 95% A at 3 mL/min to 4 mL/min; 10.1-13 min, 95% A at 4 mL/min. Retention time for [^18F] Compound (II) was 9.3 min. Arterial sampling data was used to generate the input function for kinetic modeling. Potential off-target specific binding in the brain was evaluated for each lead radiotracer using a pre-dosing paradigm in which PET was performed after administration of a 1 mg/kg homologous dose of the non-radioactive tracer over a 15-minute infusion 20 minutes prior to radiotracer injection.
Upon the completion of PET image acquisition, anesthesia was terminated, primates were monitored until fully alert, then transported to their cages. In addition to PET imaging, each primate underwent separate MRI imaging (GE Discovery™ 3T MR750 MRI scanner and GE Signa™ HDxt 1.5T MRI scanner, GE Healthcare, Chicago, IL, USA) for acquisition of a structural T1w image for purposes of co-registration and transformation to a standard atlas space. The PET data analysis was performed, and images were reconstructed using Siemens MicroPET® Manager and AsiPro (Siemens) software. PET list mode data was binned into sinograms with time frames of 6×30 seconds, 3×1 minutes, 2×2 minutes, 22×5 minutes. Images were reconstructed using filtered back projection using a Hanning filter with a 0.5 cycles/pixel cutoff. Corrections for attenuation (using the acquired CT), scatter, and deadtime correction were applied. Furthermore, the dynamic images were decay-corrected to start of PET acquisition, which coincided with the radiotracer injection. […]

[2] = biological target: tau aggregates in globus pallidus and putamen of PSP brains (Homo sapiens, UniProt P10636); assay: Homologous (self-) displacement in vitro autoradiography on FF PSP brain sections; type: binding; conditions: 3 nM radioligand displaced by corresponding non-radiolabeled compound, mean of three PSP brains, read-out: sdKD (KD determined by means of self-displacement experiments)
Text: Brain Tissue. Flash-frozen (FF) tissue blocks, and, for some cases, the corresponding mirrored, formalin-fixed, paraffin-embedded (FFPE) tissue blocks from the globus pallidus and putamen of normal or Progressive Supranuclear Palsy (PSP) brains were purchased from Tissue Solutions Ltd (TS; Glasgow, UK). Both FF and FFPE tissue blocks were used to assess the distribution pattern of [3H] Compound (I) and [3H] Compound (II) binding to normal and PSP brain samples by means of in vitro autoradiography. Only FF tissue blocks were used to determine the affinity of [^3H] Compound (I) and [^3H] Compound (II) for PSP brain by means of in vitro autoradiography. […] The plates were read using a Phosphoimager Typhoon™ FLA-70001P (GE Healthcare, Chicago, IL USA). […] Quantitative analysis of the in vitro autoradiography results. Quantitative analysis was performed by computer assisted micro-densitometry (MCD; MCID basic, Interfocus, Devon, UK). […] Identification of the areas of interest was determined by reference to the Atlas of the Human Brain (Mai et al., 2015, Elsevier, ISBN:9780128028018). […]

[3] = system: tau aggregates in globus pallidus and putamen of PSP brains; assay: In vitro autoradiography of radioligand binding to sections of globus pallidus and putamen from PSP and normal brains; design: species or system human
Text: Brain Tissue. Flash-frozen (FF) tissue blocks, and, for some cases, the corresponding mirrored, formalin-fixed, paraffin-embedded (FFPE) tissue blocks from the globus pallidus and putamen of normal or Progressive Supranuclear Palsy (PSP) brains were purchased from Tissue Solutions Ltd (TS; Glasgow, UK). Both FF and FFPE tissue blocks were used to assess the distribution pattern of [3H] Compound (I) and [3H] Compound (II) binding to normal and PSP brain samples by means of in vitro autoradiography. Only FF tissue blocks were used to determine the affinity of [^3H] Compound (I) and [^3H] Compound (II) for PSP brain by means of in vitro autoradiography. […]
In vitro autoradiography. […] The plates were read using a Phosphoimager Typhoon™ FLA-70001P (GE Healthcare, Chicago, IL USA). […]
Quantitative analysis of the in vitro autoradiography results. Quantitative analysis was performed by computer assisted micro-densitometry (MCD; MCID basic, Interfocus, Devon, UK). […] Identification of the areas of interest was determined by reference to the Atlas of the Human Brain (Mai et al., 2015, Elsevier, ISBN:9780128028018). […]

Chain of tau aggregates in globus pallidus and putamen of PSP brains (Homo sapiens, UniProt P10636) (P10636 with tags, fused parts or gaps): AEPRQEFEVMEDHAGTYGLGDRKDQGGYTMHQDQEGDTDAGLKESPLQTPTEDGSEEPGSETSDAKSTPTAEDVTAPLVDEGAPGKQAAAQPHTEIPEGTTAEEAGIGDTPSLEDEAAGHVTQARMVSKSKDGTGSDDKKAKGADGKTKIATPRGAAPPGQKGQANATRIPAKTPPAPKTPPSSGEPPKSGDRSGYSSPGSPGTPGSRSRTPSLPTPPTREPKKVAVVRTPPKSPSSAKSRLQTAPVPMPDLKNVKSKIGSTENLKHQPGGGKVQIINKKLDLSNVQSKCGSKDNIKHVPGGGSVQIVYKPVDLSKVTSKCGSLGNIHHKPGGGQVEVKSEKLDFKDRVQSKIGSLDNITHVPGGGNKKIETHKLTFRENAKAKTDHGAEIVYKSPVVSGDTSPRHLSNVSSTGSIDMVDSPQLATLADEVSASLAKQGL

Row | SMILES | off-target binding in brain [1] | relative brain uptake among the tracers ([1]; initial brain SUV after injection) | blood brain barrier crossing [1] | brain uptake and clearance [1] | Kd [2] [nM] | amount of radioligand bound to the tissue, PSP brains versus normal brains ([3]; 3 nM radioligand, grey matter of FF globus pallidus and putamen sections) [times] | selectivity for tau aggregates in PSP affected brain tissue as compared to healthy brain tissue ([3]; globus pallidus and putamen)
1 | CNc1cc(-c2ccc3cc(OCCOC)cc([18F])c3n2)ccn1 [[^18F] Compound (I), 4-[8-(^18F)fluoro-6-(2-methoxyethoxy)quinolin-2-yl]-N-methylpyridin-2-amine] | did not show significant off-target binding | highest uptake | ability to cross the blood brain barrier | rapid uptake and rapid clearance | – | – | –
2 | CNc1cc(-c2ccc3cc(N4CC(O)(C[18F])C4)ccc3n2)ccn1 [[^18F] Compound (II), 3-[(^18F)fluoromethyl]-1-{2-[2-(methylamino)pyridin-4-yl]quinolin-6-yl}azetidin-3-ol] | did not show significant off-target binding | – | ability to cross the blood brain barrier | rapid uptake and rapid clearance | – | – | –
3 | CNc1cc(-c2ccc3cc(OCCOC)cc(F)c3n2)ccn1 [[^3H] Compound (I)] [4-[8-fluoro-6-(2-methoxyethoxy)quinolin-2-yl]-N—(^3H3)methylpyridin-2-amine] | – | – | – | – | 12.4 | – | –
4 | [3H]C([3H])([3H])Nc1cc(-c2ccc3cc(OCCOC)cc(F)c3n2)ccn1 [[^3H] Compound (I)] [4-[8-fluoro-6-(2-methoxyethoxy)quinolin-2-yl]-N—(^3H3)methylpyridin-2-amine] | – | – | – | – | – | 2.1 | high degree of selectivity
